Consider five compounds from US4339442A, “Gynosaponins, their use and a process for preparing the same” (priority 1980, dated 1982).

Common to all, as to assay type: cell-based, male wister rats
Assay [1] deals with fat cells. The assay is described as follows: Decomposition by adrenalin of the fat in the fat cells. Particulars: adrenalin 1 μg/ml + saponin 20 μg/ml, 37° C., two hours; for inhibition at 20 µg/mL: Rattus norvegicus, 2 h, read-out: Rate of inhibition. The procedure: A small section was prepared from 4 g of the fat tissue, and placed in 10 ml. of Krebs-Ringer bicarbonate buffer containing 0.4 g of albumin, 10 mg of collagenase and 5 mg of glucose, and having a pH value of 7.4. […] Added into the fat cell were 10 ml. of the aforesaid buffer (pH 7.4), and the solution was carefully stirred to wash the fat cell, followed by centrifugal separation at 300 rpm for 30 seconds. This procedure was repeated twice, whereby the fat cells were washed perfectly, and these fat cells were used for the tests.
The fat cells obtained by treating with collagenase were suspended in Krebs-Ringer phosphate buffer (KRP) having a pH value of 7.4. Placed into a test tube were 0.3 ml. of the solution thus obtained, and containing 100 mg of fat cells, 0.1 ml. of an adrenalin solution containing 1 μg of adrenalin, 0.1 ml. of a saponin solution containing 20 μg of saponin, and 0.5 ml. of a 5% albumin solution in KRP, and having a pH value adjusted to 7.4. […] More specifically, 3 ml. of Dole's extract were placed in the reaction system, and after they were shaked for five minutes, 3 ml. of heptane were dispensed, and 1 ml. of a thymol blue solution was added thereinto. The resulting solution was titrated with a 0.008 N aqueous solution of sodium hydroxide, while it was being stirred with nitrogen, and the amount of the resulting free fatty acid was determined in accordance with a calibration curve.
The rate of inhibition was obtained in accordance with the equation shown at (1) above.

The subject of assay [2] is fat cells. As to the kind of experiment: Decomposition of the fat in the fat cell by ACTH. The following applies: ACTH 1 μg/ml + saponin 20 μg/ml, 37° C., two hours; for inhibition at 20 µg/mL: Rattus norvegicus, 2 h, read-out: Rate of inhibition. The method, then: (§1) Fat tissues were separated from the epididymides of male wister rats weighing 150 to 180 g each, and fat cells were obtained therefrom in accordance with the Rodbell's method [M. Rodbell, J. Biol. Chem., 239, 375 (1964)]. A small section was prepared from 4 g of the fat tissue, and placed in 10 ml. of Krebs-Ringer bicarbonate buffer containing 0.4 g of albumin, 10 mg of collagenase and 5 mg of glucose, and having a pH value of 7.4. It was heated at 37° C. for 50 minutes, and subjected to centrifugal separation at 300 rpm, whereby a floating fat cell layer was separated. Added into the fat cell were 10 ml. of the aforesaid buffer (pH 7.4), and the solution was carefully stirred to wash the fat cell, followed by centrifugal separation at 300 rpm for 30 seconds. This procedure was repeated twice, whereby the fat cells were washed perfectly, and these fat cells were used for the tests.
The fat cells obtained by treating with collagenase were suspended in Krebs-Ringer bicarbonate buffer (KRB) having a pH value of 7.4. Placed into a test tube were 0.3 ml. of the solution thus obtained (containing 100 mg of fat cells), 0.1 ml. of ACTH solution containing 1 μg of ACTH, 0.1 ml. of each saponin solution containing 500 μg of saponin, and 0.3 ml. of a 5% alubumin solution in KRB, and having a pH value adjusted to 7.4. They were heated at 37° C. for two hours, and the amount of the resulting free fatty acid was determined in accordance with the Dole's method [V. P. Dole, J. Biol. Chem., 35, 150 (1958)].
Namely, 3 ml. of Dole's extract were separated into the reaction system, and 1 ml. of a thymol blue solution was added thereinto. Nitrogen was blown into the resulting solution, and the solution was titrated with a 0.008 N aqueous solution of sodium hydroxide, while it was being stirred. The amount of the resulting free fatty acid was determined in accordance with a calibration curve.
The rate of inhibition against fat decomposition was obtained in accordance with the following equation: [formula] wherein A stands for the amount of the free fatty acid formed by addition of ACTH along in the amount of 1 μg/ml.; and B stands for the amount of the free fatty acid formed by addition of ACTH and saponin in the amount of 1 μg/ml. and 20 μg/ml., respectively.

Assay [3] relates to fat cells. The assay is described as follows: Synthesis of fat from glucose in fat cells. Particulars: 20 μg/ml; for Power for synthesis of neutral fat from glucose: 37° C., half an hour; for activation at 20 µg/mL: Rattus norvegicus, 0.5 h, read-out: Rate of promotion. The procedure: as §1
^14 C-glucose having its carbon atoms marked with radioactivity was reacted upon fat cells, and a Geiger count was read to determine the amount of the glucose participating in the fat synthesis and incorporated into the fat cells as a neutral fat, whereby gynosaponins were tested for their effects on the power of the glucose for fat synthesis.
More specifically, the fat cells obtained by treating with collagenase were suspended in KRB, and 0.35 ml. of the resulting solution containing 100 mg of fat cells was placed into a test tube with 0.1 ml. of each saponin solution containing 20 μg of saponin, 0.5 ml. of a 5% albumin solution in KRB, containing 10 mM glucose and having a pH value of 7.4, and 0.05 ml. of a ^14 C-glucose solution which was a 0.5 μCi KRP solution having a pH value of 7.4 and containing 10 mM glucose. They were heated at 37° C. for half an hour, and after 5 ml. of Dole's extract were added and the whole was shaked for five minutes, 3 ml. of heptane and 2 ml. of water were added, and the whole was shaked for five minutes. 3 ml. of a heptane layer were separated, and after an alkaline ethanol solution (0.5 N sodium hydroxide solution, 50 % ethanol solution) was added in the amount of 3 ml., the whole was shaked for five minutes. Then, 1 ml. of an ethanol layer was separated, and 10 ml. of a toluene scintillation solution were added thereinto, followed by determination according to the method of Skipski et al. [Biochem. Biophys. Acta, 106, 386 (1965)].

For the compound `CC(C)=CCC[C@](C)(O[C@@H]1O[C@H](CO[C@@H]2O[C@@H](C)[C@H](O)[C@@H](O)[C@H]2O)[C@@H](O)[C@H](O)[C@H]1O)[C@H]1CC[C@]2(C)[C@@H]1[C@H](O)C[C@@H]1[C@@]3(C)CC[C@H](O[C@@H]4O[C@H](CO)[C@@H](O)[C@H](O)[C@H]4O[C@@H]4OC[C@@H](O)[C@H](O)[C@H]4O)C(C)(C)[C@@H]3CC[C@]12C` [gynosaponin R, 20S-Protopanaxadiol-3-O-[β-D-xylopyranosyl (1→2)-β-D-glucopyranoside]-20-O-[α-L-rhamnopyranosyl (1→6)-β-D-glucopyranoside]], the inhibition (commonly the relative decrease from the control value, in per cent) at 20 µg/mL in the assay with fat cells [1] turned out to be 1%; in the assay on fat cells [2], 26%. Besides, the “Free fatty acid formed by decomposition of fat” value (from here on “Free fatty acid formed”) in the assay on fat cells [1] is listed as 14.0 μ Eq/g; in the assay on fat cells [2], 6.2 μ Eq/g. Besides, the “Power for synthesis of neutral fat from glucose” value (from here on “Power for synthesis”) with fat cells [3] is reported as 12,600 cpm/g. Also, the activation at 20 µg/mL with fat cells [3] (none = 100) came to 59%.

As for `CC(=CCCC(C)(OC1OC(COC2OC(C)C(O)C(O)C2O)C(O)C(O)C1O)C1CCC2(C)C1C(O)CC1C3(C)CCC(OC4OC(CO)C(O)C(O)C4OC4OC(CO)C(O)C(O)C4O)C(C)(C)C3CCC12C)CO` [gynosaponin P, 20S,26-Hydroxyprotopanaxadiol-3-O-[β-D-glucopyranosyl (1→2)-β-D-glucopyranoside]-20-O-[α-L-rhamnopyranosyl (1→6)-β-D-glucopyranoside]], in the assay with fat cells [1], the inhibition at 20 µg/mL is 10% and the “Free fatty acid formed” value is on record as 12.7 μ Eq/g. In addition, in the assay on fat cells [2], the “Free fatty acid formed” value turned out to be 6.6 μ Eq/g and the inhibition at 20 µg/mL was found to be 21%. For the same compound, the “Power for synthesis” value in the assay on fat cells [3] is listed as 8,165 cpm/g. Further, in the assay on fat cells [3] (none = 100), the activation at 20 µg/mL was found to be 38%.

With `CC(=CCC[C@](C)(O[C@@H]1O[C@H](CO)[C@@H](O)[C@H](O)[C@H]1O)[C@H]1CC[C@]2(C)[C@@H]1[C@H](O)C[C@@H]1[C@@]3(C)CC[C@H](O)C(C)(C)[C@@H]3CC[C@]12C)CO` [progynosapogenin O1, 20S,26-Hydroxyprotopanaxadiol-20-O-β-D-glucopyranoside], in the assay on fat cells [1], the inhibition at 20 µg/mL is 11% and the “Free fatty acid formed” value is recorded as 12.6 μ Eq/g. In addition, in the assay on fat cells [2], the “Free fatty acid formed” value is given as 5.9 μ Eq/g and the inhibition at 20 µg/mL was 30%. In the assay on fat cells [3], the “Power for synthesis” value is 11,200 cpm/g. In addition, the activation at 20 µg/mL with fat cells [3] (none = 100) amounted to 52%.

As to “20S-Protopanaxadiol-3-O-{[β-D-glucopyranosyl (1→2)-α-L-rhamnopyranosyl (1→6)]-β-D-glucopyranoside}-20-O-[β-D-glucopyranosyl (1→6)-β-D-glucopyranoside] [gynosaponin A]”, the “Free fatty acid formed” value in the assay on fat cells [1] is reported as 13.4 μ Eq/g; with fat cells [2], 6.1 μ Eq/g. Moreover, the Rate of inhibition came to 5% in the assay with fat cells [1] and 27% with fat cells [2]. Besides, in the assay with fat cells [3], the “Power for synthesis” value is 8,013 cpm/g. This compound had a Rate of promotion in the assay with fat cells [3] (none = 100) of 37%.

For the compound `CC(C)=CCC[C@](C)(O[C@@H]1O[C@H](CO[C@@H]2O[C@@H](C)[C@H](O)[C@@H](O)[C@H]2O)[C@@H](O)[C@H](O)[C@H]1O)[C@H]1CC[C@]2(C)[C@@H]1[C@H](O)C[C@@H]1[C@@]3(C)CC[C@H](O)C(C)(C)[C@@H]3CC[C@]12C` [gynosaponin N, 20S-Protopanaxadiol-20-O-[α-L-rhamnopyranosyl (1→6)-β-D-glucopyranoside]], in the assay on fat cells [1], the inhibition at 20 µg/mL stood at 6% and the “Free fatty acid formed” value worked out at 13.3 μ Eq/g. In the assay with fat cells [2], the “Free fatty acid formed” value is 5.2 μ Eq/g and the inhibition at 20 µg/mL is 38%. For the same compound, the “Power for synthesis” value with fat cells [3] was 9,870 cpm/g. Besides, in the assay with fat cells [3] (none = 100), the activation at 20 µg/mL turned out to be 46%.
